Measured values as given in patent publication US20230346889A9, “TREATMENT OF ACUTE HEART FAILURE” (AnaCardio R&D AB, priority 2019, published 2023).
Entries after “also recorded” stand apart in the source; their conditions may differ.

Tested on: patients with advanced CHF and reduced EF
Assay: Trial echocardiography
Assay type: in vivo, human
Description: Echocardiography was performed by a technician blinded to treatment allocation and all echo images were analyzed and interpreted by one independent investigator blinded to treatment allocation and clinical history of the patients. Two dimensional images were recorded with a Vivid 7/E9 ultrasound system (GE, Horten, Norway) with a 3 MHz Doppler transducer. A detailed echocardiographic examination including dimensions, cardiac systolic and diastolic function, valve performance and systolic pulmonary artery pressure was performed at baseline (Table 5). A shorter protocol including left ventricular dimensions and function, stroke volume and cardiac output was used for comparison of changes over time (Table 9 and 10). Left ventricular end-systolic and end-diastolic volumes and left ventricular ejection fraction (LVEF) were measured using the modified biplane Simpson's method. LVEF was also measured using the Teichholz method. Because of missing data on LVEF by the Simpson's method due to low image quality, changes in LVEF over time was calculated using the Teichholz method. Left atrial volumes were calculated using the biplane area length method from the apical four- and two-chamber views and indexed to the body surface area. The E/e′ ratio was calculated using the peak E-wave velocity of the mitral inflow and the averaged of septal and lateral tissue Doppler recordings. Tricuspid annular peak systolic excursion (TAPSE) was assessed with M-mode echocardiography. Speckle tracking was used for left ventricular longitudinal strain. […] Stroke volume was derived from the left ventricular outflow tract (LVOT) area and the LVOT […] time integral (VTI) (LVOT area×LVOT VTI). Cardiac output was calculated as the echo derived stroke volume×heart rate.

For `CCCCCCCC(=O)OC[C@H](NC(=O)[C@H](CO)NC(=O)CN)C(=O)N[C@@H](Cc1ccccc1)C(=O)N[C@@H](CC(C)C)C(=O)N[C@@H](CO)C(=O)N1CCC[C@H]1C(=O)N[C@@H](CCC(=O)O)C(=O)N[C@@H](Cc1cnc[nH]1)C(=O)N[C@@H](CCC(N)=O)C(=O)N[C@@H](CCCNC(=N)N)C(=O)N[C@H](C(=O)N[C@@H](CCC(N)=O)C(=O)N[C@@H](CCC(N)=O)C(=O)N[C@@H](CCCNC(=N)N)C(=O)N[C@@H](CCCCN)C(=O)N[C@@H](CCC(=O)O)C(=O)N[C@@H](CO)C(=O)N[C@@H](CCCCN)C(=O)N[C@@H](CCCCN)C(=O)N1CCC[C@H]1C(=O)N1CCC[C@H]1C(=O)N[C@@H](C)C(=O)N[C@@H](CCCCN)C(=O)N[C@@H](CC(C)C)C(=O)N[C@@H](CCC(N)=O)C(=O)N1CCC[C@H]1C(=O)N[C@@H](CCCNC(=N)N)C(=O)O)C(C)C` [Ghrelin], the “CO (echocardiography)” value (2-5 days FU) was 3.8 ± 1.3 L/min, the “E/e′” value (2-5 days FU) was 16.2 ± 8.3 ratio and the LVEDD (2-5 days FU) was 66 ± 10 mm. For the same molecule, the LVEF (2-5 days FU) was 28.5 ± 11.9%, the LVESD (2-5 days FU) was 57 ± 11 mm and the “SV (echocardiography)” value (2-5 days FU) was 52.5 ± 20.6 mL. For the same molecule, the TAPSE (2-5 days FU) was 11.8 ± 6.0 mm, the Strain (2-5 days FU, n = 12) was 10.4 ± 6.4% and the “CO (echocardiography)” value (+30 min) was 4.1 ± 1.5 L/min. The “E/e′” value (+30 min) was 15.3 ± 6.6 ratio, the LVEDD (+30 min) was 65 ± 9 mm and the LVEF (+30 min) was 30.1 ± 11.2%. For the same molecule, the LVESD (+30 min) was 56 ± 11 mm, the “SV (echocardiography)” value (+30 min) was 62.2 ± 23.8 mL and the TAPSE (+30 min) was 14.1 ± 5.4 mm. For the same molecule, the Strain (+30 min, n = 13) was 12.46 ± 4.1%, the “CO (echocardiography)” value (BL) was 3.8 ± 1.5 L/min and the “E/e′” value (BL) was 15.2 ± 5.5 ratio. For the same molecule, the LVEDD (BL) was 66 ± 9 mm, the LVESD (BL) was 58 ± 9 mm and the “SV (echocardiography)” value (BL) was 54.3 ± 18.4 mL. For the same molecule, the TAPSE (BL) was 13.0 ± 5.9 mm, the LVEF (BL, Teichholz method) was 27.4 ± 7.4% and the Strain (BL, n = 13 in ghrelin group) was 11.9 ± 6.3%. The “CO (echocardiography)” value (Baseline (Table 10)) was 3.8 ± 1.5 L/min, the “E/e′” value (Baseline (Table 10)) was 15.2 ± 5.5 ratio and the LVEDD (Baseline (Table 10)) was 66 ± 9 mm. The LVEF (Baseline (Table 10)) was 27.4 ± 7.4%, the LVESD (Baseline (Table 10)) was 58 ± 9 mm and the “SV (echocardiography)” value (Baseline (Table 10)) was 54.3 ± 18.4 mL. The TAPSE (Baseline (Table 10)) was 13.0 ± 5.9 mm, the Strain (Baseline (Table 10), n = 12 in ghrelin group) was 11.9 ± 6.3% and the “CO (echocardiography)” value (INF + 60 min) was 3.9 ± 1.3 L/min. For the same molecule, the “E/e′” value (INF + 60 min) was 17.1 ± 9.5 ratio, the LVEDD (INF + 60 min) was 67 ± 9 mm and the LVEF (INF + 60 min) was 29.1 ± 11.5%. For the same molecule, the LVESD (INF + 60 min) was 58 ± 11 mm, the “SV (echocardiography)” value (INF + 60 min) was 56.3 ± 21.4 mL and the TAPSE (INF + 60 min) was 13.1 ± 4.8 mm. The Strain (INF + 60 min, n = 13) was 13.4 ± 4.6%, the “CO (echocardiography)” value (INF + 120 min) was 3.9 ± 1.4 L/min and the “E/e′” value (INF + 120 min) was 16.3 ± 8.9 ratio. For the same molecule, the LVEDD (INF + 120 min) was 67 ± 10 mm, the LVEF (INF + 120 min) was 29.8 ± 11.4% and the LVESD (INF + 120 min) was 57 ± 11 mm. For the same molecule, the “SV (echocardiography)” value (INF + 120 min) was 59.5 ± 25.5 mL, the TAPSE (INF + 120 min) was 14.2 ± 5.4 mm and the Strain (INF + 120 min, n = 13) was 13.2 ± 5.8%. The “change in CO by echocardiography” value (in vivo) was “trends toward a difference in change of CO in favor of ghrelin; also recorded: a nominal interaction suggesting improvement with ghrelin but no significant differences in change”, the “change in E/e′” value (in vivo) was “no differences in change; also recorded: no interaction with or differences in change” and the “change in EF” value (in vivo) was “a trend toward a greater absolute (p=0.12) and percent change (p=0.14) in EF with ghrelin; also recorded: a nominal interaction suggesting improvement in EF with ghrelin”. For the same molecule, the “change in LVEDD” value (in vivo) was “no change or differences in change”, the “change in LVESD” value (in vivo) was “no change or differences in change” and the “change in SV by echocardiography” value (in vivo) was “a significant difference in change of SV in favor of ghrelin; also recorded: a significant interaction suggesting improvement with ghrelin”. The “change in TAPSE” value (in vivo) was “a trend toward a greater difference in change; also recorded: a trend toward an interaction suggesting improvement in TAPSE” and the “segmental strain by echocardiography” value (in vivo) was “numerical differences in favor of ghrelin but no statistical significance”.
